≈ marks a conversion by molar mass, not a printed value.

A word on the kinetic solubility: it is the concentration staying in solution when a stock, usually in DMSO, is diluted into the medium.

The conditions of this data set: buffer; pH 7.4; 6.0 h; 150.0 µM.
In turn, `Cc1cn2c(N)c(Cl)cc(C(=O)NCC3CCN(CC(C)C)CC3)c2n1` showed a kinetic solubility of 39.2 µg/mL (≈ 104 µM).

`COc1ccc(OC)c(-c2nc3c(C#N)c[nH]n3c2NC2CCCCC2)c1` registered a kinetic solubility of 12.2 µg/mL (≈ 33.5 µM).

Molecule `c1c[nH]c(C2CCN(c3ncc(-c4ccc5c(c4)OCCCO5)s3)CC2)n1` gave a kinetic solubility of 4.09 µg/mL (≈ 10.7 µM).

`O=C(c1nc(-c2ccc(Cl)nc2)c2ccccn12)N1CCCC1` yielded a kinetic solubility of 2.73 µg/mL (≈ 8.36 µM).

In turn, `Cc1ccc(S(=O)(=O)Nc2ccc(Br)cc2C(=O)Nc2nc(-c3ccccc3)cs2)cc1` had a kinetic solubility of under 1 µg/mL.

`Cc1ccc(-c2cc(C(=O)Nc3ncco3)c3ccccc3n2)cc1C` had a kinetic solubility of 4.24 µg/mL (≈ 12.3 µM).

`Cc1cc2ccccc2n1CC(=O)NC1CCCCC1` yielded a solubility (kinetic) of 3.41 µg/mL (≈ 12.6 µM).

On to `CCOc1ccc(CCNC(=O)c2cccc(C(=O)c3ccccc3)c2)cc1OCC`, for which the solubility (kinetic) worked out at 3.12 µg/mL (≈ 7.47 µM).

Turning to `CN(C)C(=O)c1nc(-c2ccc(Cl)nc2)c2ccccn12`, the solubility (kinetic) came to 27.6 µg/mL (≈ 91.8 µM).

Regarding `COC(=O)C1=COC(C)C2CN3CCc4c([nH]c5cc(OC)c(OC)cc45)C3CC12` (stereo not drawn), the solubility (kinetic) turned out to be 46.9 µg/mL (≈ 114 µM).

For the molecule `Nc1ncnc(N2CCc3ccccc32)c1[N+](=O)[O-]`, the solubility (kinetic) is under 1 µg/mL.

In the case of `CCc1ccc(NC(=O)c2[nH]c(C)c(C(C)=O)c2C)cc1[S+](=O)([O-])Nc1ccccc1C#N`, the kinetic solubility stood at 40.3 µg/mL (≈ 86.8 µM).

Turning to `CCOC(=O)c1nn(-c2ccc(OC)cc2)c(=O)c2c(N)scc12`, the solubility (kinetic) is 5.68 µg/mL (≈ 16.5 µM).

Molecule `CCN(CC)C(=O)c1sc2c(c1C)c(=O)n(Cc1ccccc1)c(=O)n2CC(=O)Nc1ccc(OC)cc1` registered a kinetic solubility of under 1 µg/mL.

On to `NC(=O)C1CCN(c2nc(-c3ccccc3C(F)(F)F)cs2)CC1`, for which the solubility (kinetic) was over 52 µg/mL.

Turning to `O=c1cc(N2CCOCC2)oc2c1ccc1ccccc12`, the kinetic solubility is 16.7 µg/mL (≈ 59.5 µM).

In turn, `CCCc1oc2ccc(NS(=O)(=O)c3ccc(OC)cc3)cc2c1C(=O)OCC` registered a solubility (kinetic) of under 1 µg/mL.

For the molecule `O=S(=O)(Nc1ccc(-c2ccccc2)cc1)c1ccc(NCc2ccc(Br)cc2O)cc1`, the solubility (kinetic) is under 1 µg/mL.

`COc1ccc(C(=O)N[C@@H]2CCC[C@@H]2C(=O)N2CCC(Cc3ccccc3)CC2)cc1` gave a kinetic solubility of 17.9 µg/mL (≈ 42.6 µM).

Turning to `CC(=O)c1ccc(N2CCN(S(=O)(=O)c3ccc4c(c3)n(C)c(=O)n4C)CC2)cc1`, the solubility (kinetic) was 2.6 µg/mL (≈ 6.07 µM).

Regarding `Cc1cc(-c2ccc(C)c(S(=O)(=O)NCC3CCN(Cc4ccc(F)cc4)CC3)c2)on1`, the kinetic solubility is 40.5 µg/mL (≈ 88.5 µM).

Molecule `CCC(Sc1nc2ccccc2c2nc(CCc3c(C)n[nH]c3C)nn12)C(=O)Nc1ccc(F)cc1` (stereo not drawn) returned a kinetic solubility of under 1 µg/mL.

In the case of `CCOc1ccc(CCNC(=O)c2cc3sccc3n2Cc2ccc(-n3cncn3)cc2)cc1OCC`, the solubility (kinetic) is under 1 µg/mL.

Turning to `NC(=O)COc1ccc(C2CC(=O)Nc3n[nH]c(Nc4ccccc4)c32)cc1` (stereo not drawn), the kinetic solubility came to 41.7 µg/mL (≈ 110 µM).

`O=c1cc(/C=C/c2c(F)cccc2Cl)[nH]c2ccccc12` gave a solubility (kinetic) of 1.73 µg/mL (≈ 5.77 µM).

`CCOc1ccc(CCNC(=O)c2cc3ccncc3n2Cc2cccc(C)c2)cc1OCC` came in with a kinetic solubility of 55.7 µg/mL (≈ 122 µM).

With `Cc1ccc(-n2ncc(C(=O)NCCN3CCC(Cc4ccccc4)CC3)c2C2CCN(C(=O)OC(C)(C)C)CC2)cc1`, the solubility (kinetic) stood at 23.2 µg/mL (≈ 39.6 µM).

As for `CCN(CC)c1ccc(Nc2nc(Cl)ncc2Br)cc1`, the kinetic solubility came out at 4.94 µg/mL (≈ 13.9 µM).

`C=Cc1ccc(Cn2c(C(=O)O)c(CNCc3ccccc3)c3ccc(OC)cc32)cc1` gave a solubility (kinetic) of 5.42 µg/mL (≈ 12.7 µM).

In the case of `Cc1cccc(-n2cnc3cc(C(=O)N4CCCC(C(C)C)C4)ccc32)c1` (stereo not drawn), the solubility (kinetic) amounted to 5.59 µg/mL (≈ 15.5 µM).

The molecule `CCN1CCN(CCCOc2ccc(-c3ccccc3)cc2)CC1` displayed a kinetic solubility of over 48 µg/mL.

Consider `NC(=O)C1CCN(c2nccc(-c3ccc(Br)cc3)n2)CC1`, for which the solubility (kinetic) was 5.39 µg/mL (≈ 14.9 µM).

`CCOC(=O)C1CCN(C(=O)Nc2ccc3c(c2)nc(C)n3C)CC1`: the kinetic solubility was over 51 µg/mL.

In turn, `CCCN1C(CC(C)C)=NS(=O)(=O)c2cc(NC(=O)c3ccco3)ccc21` showed a kinetic solubility of under 1 µg/mL.

Molecule `Cc1cc(S(=O)(=O)Nc2cnccc2C(=O)Nc2nc(-c3ccccc3)cs2)c(C)o1` had a kinetic solubility of over 67 µg/mL.

`Cc1ccnc(C)c1C(=O)Nc1cccc([S+](=O)([O-])N(C)C)c1` had a kinetic solubility of over 49 µg/mL.

In turn, `O=C1CCCC2=C1C1(CCCC1)N=C(Nc1nc3cc(Br)ccc3o1)N2` displayed a solubility (kinetic) of under 1 µg/mL.

Molecule `O=C(Nc1nc(-c2ccccn2)cs1)c1cccc(-n2cnnn2)c1` gave a kinetic solubility of 1.1 µg/mL (≈ 3.15 µM).

Molecule `O=C(NC1CCCc2c1cnn2-c1ccc(O)cc1)c1ccccn1` (stereo not drawn) had a kinetic solubility of 40.8 µg/mL (≈ 122 µM).

Molecule `CCOC(=O)C1(Cc2ccccc2C(F)(F)F)CCN(C2CCN(C(C)C)CC2)CC1` showed a kinetic solubility of 55 µg/mL (≈ 125 µM).

`Cc1ccc2c(c1)N(S(=O)(=O)c1cc(-c3onc(C)c3C)ccc1C)CCO2` gave a kinetic solubility of under 1 µg/mL.

`COc1ccc(C2=Nn3c(nnc3-c3ccncc3)SC2)cc1` yielded a solubility (kinetic) of 9.06 µg/mL (≈ 28 µM).

`Cc1cn(CCN2CCN(c3ccccc3-c3cc(C#N)cc(C(=O)NCCCN4CCCC4)c3)CC2)c2ccccc12` registered a solubility (kinetic) of 14.6 µg/mL (≈ 25.4 µM).

In the case of `O=S(=O)(Nc1nccs1)c1ccc(NCc2ccc(Cl)cc2O)cc1`, the solubility (kinetic) stood at 1.32 µg/mL (≈ 3.34 µM).

Take `Cc1ccc(S(=O)(=O)Nc2cc(C)ccc2C(=O)Nc2nc(-c3ccccc3)cs2)cc1`: the kinetic solubility is under 1 µg/mL.

As to `Cc1ccc(S(=O)(=O)Nc2cnccc2C(=O)NCCc2ccccc2)cc1`, the solubility (kinetic) was over 58 µg/mL.

Turning to `Cc1cc(-c2nnc3n2CCCCC3)c(C)n1-c1cccc(C(F)(F)F)c1`, the kinetic solubility was determined as 32.8 µg/mL (≈ 87.5 µM).

Turning to `CC1=C(C(=O)NCc2ccccc2)C(c2ccccc2Br)N=C(Nc2nc3ccccc3o2)N1` (stereo not drawn), the solubility (kinetic) was under 1 µg/mL.

`O=C(NCCc1nc2ccccc2n1CCO)C1CCCCC1`: the solubility (kinetic) was over 47 µg/mL.

Take `O=C(COC(=O)CCC(=O)c1cccs1)NCc1ccco1`: the kinetic solubility was over 47 µg/mL.

As for `COc1cccc(CNc2ccc(S(=O)(=O)Nc3ncc(-c4ccccc4)s3)cc2)c1O`, the kinetic solubility is 6.07 µg/mL (≈ 13 µM).

`CC1Cc2cc(S(=O)(=O)NCc3ccc(N(C)C)cc3)ccc2N1C(=O)C1CCC1` (stereo not drawn) displayed a solubility (kinetic) of 3.08 µg/mL (≈ 7.2 µM).

Molecule `CCOc1ccc(CCNC(=O)c2cc3sccc3n2Cc2ccncc2)cc1OCC` had a solubility (kinetic) of 4.18 µg/mL (≈ 9.31 µM).

`Cc1ccc(S(=O)(=O)Nc2cnccc2C(=O)Nc2ccc(-c3nc4ccccc4[nH]3)cc2)cc1` showed a solubility (kinetic) of under 1 µg/mL.

For `O=C1CCCC2=C1C(c1ccccc1C(F)(F)F)N=C(Nc1nc3ccccc3o1)N2` (stereo not drawn), the kinetic solubility is under 1 µg/mL.

As to `O=C(Nc1ncc(Cc2ccc(C(F)(F)F)cc2)s1)c1ccc(-c2ccccc2)o1`, the solubility (kinetic) was under 1 µg/mL.

With `CC(=O)c1ccc(N2CCN(c3ccc(NC(=O)c4ccc(F)cc4)cc3C(=O)O)CC2)cc1`, the solubility (kinetic) was under 1 µg/mL.

As to `Cc1ccc(S(=O)(=O)Nc2ccccc2Nc2nc(-c3ccccc3)cs2)cc1`, the solubility (kinetic) is under 1 µg/mL.

For the molecule `COc1ccc(-c2nc(N3CCOCC3)c3sc(CN(C)c4ncc(C(=O)NO)cn4)cc3n2)cn1`, the solubility (kinetic) came out at 5.56 µg/mL (≈ 10.9 µM).

`O=C(NCCCc1ccccc1)C1CCN(c2nc(-c3ccc(Br)cc3)cs2)CC1` came in with a solubility (kinetic) of 3.28 µg/mL (≈ 6.77 µM).

The molecule `Cc1cccc(-n2ccc(=O)c(C(=O)Nc3ccc(S(=O)(=O)Nc4nccs4)cc3)n2)c1` displayed a solubility (kinetic) of under 1 µg/mL.

In turn, `O=c1cc(-c2ccc(O)c(O)c2)oc2cc(O)cc(O)c12` came in with a kinetic solubility of over 100 µg/mL.

In turn, `C=C1C(=O)O[C@@H]2[C@H]3O[C@]3(C)CC/C=C(\C)CC[C@@H]12` came in with a kinetic solubility of 7.28 µg/mL (≈ 29.3 µM).

Turning to `COc1cccc(CNc2ccc(S(=O)(=O)Nc3nc(C)cs3)cc2)c1O`, the kinetic solubility is 42.7 µg/mL (≈ 105 µM).

Molecule `O=C(c1cccc(F)c1)N1CCC2(CCN(Cc3cc(C(F)(F)F)cc(C(F)(F)F)c3)CC2)CC1` displayed a solubility (kinetic) of 3.62 µg/mL (≈ 7.2 µM).

Regarding `COc1ccc(-c2nc3ccc(C4=NNC(=O)CC4C)cc3[nH]2)cc1` (stereo not drawn), the solubility (kinetic) was under 1 µg/mL.

In turn, `COc1cc(OC)c2c(=O)[nH]c(-c3cc(C)c(OCCO)c(C)c3)nc2c1` registered a solubility (kinetic) of over 55 µg/mL.

As for `Cc1cc(N2CCN(c3ccccc3)CC2)nc(-n2nc(C)cc2C)n1`, the kinetic solubility is 40 µg/mL (≈ 115 µM).

As to `COc1cccc(C(=O)Nc2cccc(OCc3cc(=O)n4cccc(C)c4n3)c2)c1`, the solubility (kinetic) was under 1 µg/mL.

The molecule `Cc1ccc(S(=O)(=O)Nc2cnccc2C(=O)Nc2nc(C3CCC3)cs2)cc1` came in with a solubility (kinetic) of over 63 µg/mL.

As for `Cc1cccc(N(C)c2nc3ccccc3c3nnc(C)n23)c1`, the kinetic solubility was over 45 µg/mL.

Molecule `O=C(/C=C/c1cccnc1)NCCCCC1CCN(C(=O)c2ccccc2)CC1` gave a kinetic solubility of over 58 µg/mL.

In turn, `COc1cccc(O)c1CNc1ccc(S(=O)(=O)Nc2nccs2)cc1` displayed a kinetic solubility of over 58 µg/mL.

In turn, `O=C(NC1CC1)c1nc(-c2cccnc2)c2ccccn12` registered a kinetic solubility of over 62 µg/mL.

As for `O=[S+]([O-])(Nc1ccc(N2CCNCC2)cc1)c1ccc(NCc2ccc(Cl)cc2O)cc1`, the kinetic solubility stood at 25.2 µg/mL (≈ 53.3 µM).

`COc1ccc(-c2nc(NC(C)c3ccccc3)c3ccccc3n2)cc1` (stereo not drawn) returned a kinetic solubility of under 1 µg/mL.

Take `Cc1cc(C)nc(NC(=S)N2CCN(c3ccc(F)cc3F)CC2)c1`: the solubility (kinetic) was determined as 24.8 µg/mL (≈ 68.4 µM).

As to `COc1ccc(CNC(=O)CCCn2nc(C)c3c(C)n(-c4ccc(C)cc4)nc3c2=O)cc1OC`, the solubility (kinetic) was over 48 µg/mL.

In turn, `CCc1oc2ccccc2c1C(=O)c1cc(Br)c(O)c(Br)c1` displayed a kinetic solubility of over 62 µg/mL.

For the molecule `COc1ccc(C)cc1NS(=O)(=O)c1ccc(-c2cnc(C3CC3)o2)cc1`, the solubility (kinetic) is under 1 µg/mL.

Molecule `CCOC(=O)c1[nH]c(C)c(CCC(=O)N2CCN(c3cccc(C)c3C)CC2)c1C` gave a kinetic solubility of under 1 µg/mL.

The molecule `CC(C)(O)CCc1ccc(OCc2cc(-c3cccc(OC(F)F)c3)c3ncccc3c2)cc1` registered a solubility (kinetic) of under 1 µg/mL.

Molecule `O=C(Nc1ccc(F)c(C(F)(F)F)c1)Nc1nnc(-c2ccncc2)s1` came in with a kinetic solubility of under 1 µg/mL.

Molecule `COc1cccc(CNc2ccc(S(=O)(=O)Nc3cnc4ccccc4c3)cc2)c1O` registered a solubility (kinetic) of under 1 µg/mL.

Molecule `CC(=O)N1CCc2cc(S(=O)(=O)NCCC3=CCCCC3)ccc21` registered a kinetic solubility of 4.37 µg/mL (≈ 12.6 µM).

`Cc1onc(-c2ccccc2)c1C(=O)Nc1nnc(COc2ccc(Cl)cc2)s1`: the solubility (kinetic) is under 1 µg/mL.

In the case of `CCCCCCC.CN1C(=O)CN=C(c2ccc[nH]2)c2cc(Cl)ccc21`, the solubility (kinetic) is over 40 µg/mL.

As to `CCOC(=O)CCNc1cc(N2CCc3ccccc3CC2)nc(-c2ccccn2)n1`, the kinetic solubility amounted to 8.45 µg/mL (≈ 20.2 µM).

These data come from PubChem BioAssay AID1645848.
